Experimental data taken from the supplement of paper PMC10307832.

Tests used:
Experiment in all cases: relative viability (nuclei count vs DMSO), 5 days (fraction); higher = more cells survive
[1] = tested on: NCI-H2009
In short: (§1)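 Relative viability divides the nuclei count in treated wells by that in vehicle wells. Lung cancer cell lines were seeded in 1536-well plates, dosed by pin tool the next day, and fixed and stained after 5 days in one step with final 0.05% Triton X-100, 1% formaldehyde and 1 ug/ml Hoechst. Dosing was a single drug or a fixed anchor-drug dose plus five library-drug doses (not always all listed) in √10 steps, and values are medians of duplicate plates imaged at 4×.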

[2] = tested on: NCI-H1755
In short: as §1

[3] = tested on: PC-14
In short: as §1

[4] = tested on: ChaGo-K-1
In short: as §1

[5] = tested on: NCI-H647
In short: as §1

[6] = tested on: SW 900
In short: as §1

[7] = tested on: NCI-H522
In short: as §1

[8] = tested on: HOP-62
In short: as §1

[9] = tested on: NCI-H1734
In short: as §1

[10] = tested on: H3255
In short: as §1

[11] = tested on: NCI-H441
In short: as §1

[12] = tested on: NCI-H2126
In short: as §1

[13] = tested on: NCI-H596
In short: as §1

[14] = tested on: CAL-12T
In short: as §1

[15] = tested on: LK-2
In short: as §1

[16] = tested on: NCI-H3122
In short: as §1

[17] = tested on: NCI-H1651
In short: as §1

[18] = tested on: NCI-H322M
In short: as §1

[19] = tested on: NCI-H2170
In short: as §1

[20] = tested on: NCI-H2087
In short: as §1

[21] = tested on: ABC-1
In short: as §1

[22] = tested on: 201T
In short: as §1

[23] = tested on: LXF-289
In short: as §1

[24] = tested on: EMC-BAC-2
In short: as §1

## CCCCCCCCCCCC1=C(O)C(=O)C=C(O)C1=O [Embelin] + Cc1cc(Nc2cc(N3CCN(C)CC3)nc(Sc3ccc(NC(=O)C4CC4)cc3)n2)n[nH]1 [Tozasertib] (partner 0.1 µM)
[1]; first compound 0.08 µM
  relative viability: 0.753
[1]; first compound 0.8 µM
  relative viability: 0.915
[1]; first compound 2.53 µM
  relative viability: 0.798
[1]; first compound 8 µM
  relative viability: 0.714
[2]; first compound 0.08 µM
  relative viability: 0.666
[2]; first compound 0.8 µM
  relative viability: 0.647
[2]; first compound 2.53 µM
  relative viability: 0.605
[2]; first compound 8 µM
  relative viability: 0.555
[3]; first compound 0.08 µM
  relative viability: 0.612
[3]; first compound 0.8 µM
  relative viability: 0.718
[3]; first compound 2.53 µM
  relative viability: 0.74
[3]; first compound 8 µM
  relative viability: 0.644
[4]; first compound 0.08 µM
  relative viability: 0.243
[4]; first compound 0.8 µM
  relative viability: 0.239
[4]; first compound 2.53 µM
  relative viability: 0.212
[4]; first compound 8 µM
  relative viability: 0.243
[5]; first compound 0.08 µM
  relative viability: 0.361
[5]; first compound 0.8 µM
  relative viability: 0.26
[5]; first compound 2.53 µM
  relative viability: 0.288
[5]; first compound 8 µM
  relative viability: 0.245
[6]; first compound 0.08 µM
  relative viability: 0.438
[6]; first compound 0.8 µM
  relative viability: 0.672
[6]; first compound 2.53 µM
  relative viability: 0.511
[6]; first compound 8 µM
  relative viability: 0.718
[7]; first compound 0.08 µM
  relative viability: 0.617
[7]; first compound 0.8 µM
  relative viability: 0.577
[7]; first compound 2.53 µM
  relative viability: 0.513
[7]; first compound 8 µM
  relative viability: 0.532
[8]; first compound 0.08 µM
  relative viability: 0.313
[8]; first compound 0.8 µM
  relative viability: 0.456
[8]; first compound 2.53 µM
  relative viability: 0.377
[8]; first compound 8 µM
  relative viability: 0.387
[9]; first compound 0.08 µM
  relative viability: 0.26
[9]; first compound 0.8 µM
  relative viability: 0.27
[9]; first compound 2.53 µM
  relative viability: 0.292
[9]; first compound 8 µM
  relative viability: 0.262
[10]; first compound 0.08 µM
  relative viability: 0.716
[10]; first compound 0.8 µM
  relative viability: 0.595
[10]; first compound 2.53 µM
  relative viability: 0.812
[10]; first compound 8 µM
  relative viability: 0.851
[11]; first compound 0.08 µM
  relative viability: 0.588
[11]; first compound 0.8 µM
  relative viability: 0.628
[11]; first compound 2.53 µM
  relative viability: 0.624
[11]; first compound 8 µM
  relative viability: 0.629
[12]; first compound 0.08 µM
  relative viability: 0.809
[12]; first compound 0.8 µM
  relative viability: 0.907
[12]; first compound 2.53 µM
  relative viability: 0.919
[12]; first compound 8 µM
  relative viability: 0.878
[13]; first compound 0.08 µM
  relative viability: 0.821
[13]; first compound 0.8 µM
  relative viability: 1.06
[13]; first compound 2.53 µM
  relative viability: 0.952
[13]; first compound 8 µM
  relative viability: 0.939
[14]; first compound 0.08 µM
  relative viability: 0.315
[14]; first compound 0.8 µM
  relative viability: 0.406
[14]; first compound 2.53 µM
  relative viability: 0.372
[14]; first compound 8 µM
  relative viability: 0.358
[15]; first compound 0.08 µM
  relative viability: 0.161
[15]; first compound 0.8 µM
  relative viability: 0.172
[15]; first compound 2.53 µM
  relative viability: 0.147
[15]; first compound 8 µM
  relative viability: 0.177
[16]; first compound 0.08 µM
  relative viability: 0.356
[16]; first compound 0.8 µM
  relative viability: 0.457
[16]; first compound 2.53 µM
  relative viability: 0.424
[16]; first compound 8 µM
  relative viability: 0.417
[17]; first compound 0.08 µM
  relative viability: 0.677
[17]; first compound 0.8 µM
  relative viability: 0.657
[17]; first compound 2.53 µM
  relative viability: 0.723
[17]; first compound 8 µM
  relative viability: 0.807
[18]; first compound 0.08 µM
  relative viability: 0.526
[18]; first compound 0.8 µM
  relative viability: 0.52
[18]; first compound 2.53 µM
  relative viability: 0.521
[18]; first compound 8 µM
  relative viability: 0.503
[19]; first compound 0.08 µM
  relative viability: 0.798
[19]; first compound 0.8 µM
  relative viability: 0.761
[19]; first compound 2.53 µM
  relative viability: 0.818
[19]; first compound 8 µM
  relative viability: 0.731
[20]; first compound 0.08 µM
  relative viability: 0.28
[20]; first compound 0.8 µM
  relative viability: 0.308
[20]; first compound 2.53 µM
  relative viability: 0.222
[20]; first compound 8 µM
  relative viability: 0.217
[21]; first compound 0.08 µM
  relative viability: 0.189
[21]; first compound 0.8 µM
  relative viability: 0.166
[21]; first compound 2.53 µM
  relative viability: 0.181
[21]; first compound 8 µM
  relative viability: 0.148
[22]; first compound 0.08 µM
  relative viability: 0.934
[22]; first compound 0.8 µM
  relative viability: 0.963
[22]; first compound 2.53 µM
  relative viability: 0.94
[22]; first compound 8 µM
  relative viability: 1.06
[23]; first compound 0.08 µM
  relative viability: 0.192
[23]; first compound 0.8 µM
  relative viability: 0.187
[23]; first compound 2.53 µM
  relative viability: 0.169
[23]; first compound 8 µM
  relative viability: 0.271
[24]; first compound 0.08 µM
  relative viability: 0.27
[24]; first compound 0.8 µM
  relative viability: 0.318
[24]; first compound 2.53 µM
  relative viability: 0.269
[24]; first compound 8 µM
  relative viability: 0.267

## CCCCCCCCCCCC1=C(O)C(=O)C=C(O)C1=O [Embelin] + O=C(CCCCCCC(=O)Nc1ccccc1)NO [Vorinostat] (partner 1 µM)
[1]; first compound 0.08 µM
  relative viability: 0.748
[1]; first compound 0.8 µM
  relative viability: 0.837
[1]; first compound 2.53 µM
  relative viability: 0.705
[1]; first compound 8 µM
  relative viability: 0.748
[2]; first compound 0.08 µM
  relative viability: 0.723
[2]; first compound 0.8 µM
  relative viability: 0.813
[2]; first compound 2.53 µM
  relative viability: 0.809
[2]; first compound 8 µM
  relative viability: 0.574
[3]; first compound 0.08 µM
  relative viability: 0.746
[3]; first compound 0.8 µM
  relative viability: 0.886
[3]; first compound 2.53 µM
  relative viability: 0.586
[3]; first compound 8 µM
  relative viability: 0.948
[4]; first compound 0.08 µM
  relative viability: 0.739
[4]; first compound 0.8 µM
  relative viability: 0.782
[4]; first compound 2.53 µM
  relative viability: 0.871
[4]; first compound 8 µM
  relative viability: 0.755
[5]; first compound 0.08 µM
  relative viability: 0.58
[5]; first compound 0.8 µM
  relative viability: 0.985
[5]; first compound 2.53 µM
  relative viability: 0.732
[5]; first compound 8 µM
  relative viability: 0.58
[6]; first compound 0.08 µM
  relative viability: 0.604
[6]; first compound 0.8 µM
  relative viability: 0.718
[6]; first compound 2.53 µM
  relative viability: 0.538
[6]; first compound 8 µM
  relative viability: 0.315
[7]; first compound 0.08 µM
  relative viability: 0.876
[7]; first compound 0.8 µM
  relative viability: 0.906
[7]; first compound 2.53 µM
  relative viability: 0.763
[7]; first compound 8 µM
  relative viability: 0.856
[8]; first compound 0.08 µM
  relative viability: 0.634
[8]; first compound 0.8 µM
  relative viability: 0.812
[8]; first compound 2.53 µM
  relative viability: 0.504
[8]; first compound 8 µM
  relative viability: 0.527
[9]; first compound 0.08 µM
  relative viability: 0.868
[9]; first compound 0.8 µM
  relative viability: 0.968
[9]; first compound 2.53 µM
  relative viability: 0.929
[9]; first compound 8 µM
  relative viability: 0.749
[10]; first compound 0.08 µM
  relative viability: 0.873
[10]; first compound 0.8 µM
  relative viability: 0.834
[10]; first compound 2.53 µM
  relative viability: 0.711
[10]; first compound 8 µM
  relative viability: 0.948
[11]; first compound 0.08 µM
  relative viability: 0.691
[11]; first compound 0.8 µM
  relative viability: 0.905
[11]; first compound 2.53 µM
  relative viability: 0.841
[11]; first compound 8 µM
  relative viability: 0.657
[12]; first compound 0.08 µM
  relative viability: 0.803
[12]; first compound 0.8 µM
  relative viability: 0.763
[12]; first compound 2.53 µM
  relative viability: 0.796
[12]; first compound 8 µM
  relative viability: 0.6
[13]; first compound 0.08 µM
  relative viability: 0.56
[13]; first compound 0.8 µM
  relative viability: 0.73
[13]; first compound 2.53 µM
  relative viability: 0.667
[13]; first compound 8 µM
  relative viability: 0.495
[14]; first compound 0.08 µM
  relative viability: 0.848
[14]; first compound 0.8 µM
  relative viability: 0.779
[14]; first compound 2.53 µM
  relative viability: 0.677
[14]; first compound 8 µM
  relative viability: 0.697
[15]; first compound 0.08 µM
  relative viability: 0.308
[15]; first compound 0.8 µM
  relative viability: 0.28
[15]; first compound 2.53 µM
  relative viability: 0.261
[15]; first compound 8 µM
  relative viability: 0.307
[16]; first compound 0.08 µM
  relative viability: 0.816
[16]; first compound 0.8 µM
  relative viability: 0.999
[16]; first compound 2.53 µM
  relative viability: 1.01
[16]; first compound 8 µM
  relative viability: 0.915
[17]; first compound 0.08 µM
  relative viability: 0.576
[17]; first compound 0.8 µM
  relative viability: 0.629
[17]; first compound 2.53 µM
  relative viability: 0.575
[17]; first compound 8 µM
  relative viability: 0.59
[18]; first compound 0.08 µM
  relative viability: 0.873
[18]; first compound 0.8 µM
  relative viability: 0.954
[18]; first compound 2.53 µM
  relative viability: 1.01
[18]; first compound 8 µM
  relative viability: 0.801
[19]; first compound 0.08 µM
  relative viability: 0.773
[19]; first compound 0.8 µM
  relative viability: 0.784
[19]; first compound 2.53 µM
  relative viability: 0.922
[19]; first compound 8 µM
  relative viability: 0.754
[20]; first compound 0.08 µM
  relative viability: 0.659
[20]; first compound 0.8 µM
  relative viability: 0.714
[20]; first compound 2.53 µM
  relative viability: 0.759
[20]; first compound 8 µM
  relative viability: 0.744
[21]; first compound 0.08 µM
  relative viability: 1.04
[21]; first compound 0.8 µM
  relative viability: 1.48
[21]; first compound 2.53 µM
  relative viability: 0.955
[21]; first compound 8 µM
  relative viability: 0.86
[22]; first compound 0.08 µM
  relative viability: 0.993
[22]; first compound 0.8 µM
  relative viability: 1.01
[22]; first compound 2.53 µM
  relative viability: 1.04
[22]; first compound 8 µM
  relative viability: 0.851
[23]; first compound 0.08 µM
  relative viability: 0.803
[23]; first compound 0.8 µM
  relative viability: 0.742
[23]; first compound 2.53 µM
  relative viability: 0.715
[23]; first compound 8 µM
  relative viability: 0.809
[24]; first compound 0.08 µM
  relative viability: 0.344
[24]; first compound 0.8 µM
  relative viability: 0.561
[24]; first compound 2.53 µM
  relative viability: 0.257
[24]; first compound 8 µM
  relative viability: 0.269
